Results as given in patent US20260042764A1, “COMPOSITIONS AND METHODS FOR INHIBITION OF KRAS” (TheRas, Inc., priority 2022, published 2026).
pIC50: −log10 of the molar value.

Assays:
GP2d cells (KRAS G12D) = experiment: Cell-based pERK HTRF assay in GP2d cell (Biological Example 2); conditions: GP2d (KRAS G12D) cells
Summary of the method: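 60 min compound, 0.25% DMSO, 9-pt half-log curve from 1 μM or 100 nM; DMEM/10% FBS.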

SW1900 cells (KRAS G12D) = experiment: 3D Cell viability assay in SW1900 cells (Biological Example 6); assay type: cell-based; conditions: SW1990 (text: SW1900, KRAS G12D) spheroids, 72 hours
Procedure: (§1) Biological Example 6: 3D Cell viability assay in AsPC-1, SW1900, HPAC, Capan-2, RKN, H358, HCT116, KP-2, H1573, A549, MKN1, and HT1080 cells
(§2) The inhibition of cellular viability as a result of test compound treatment in a spheroid assay was measured using the CellTiter-Glow 3D Cell Viability Assay (Promega).
(§3) On Day 1, 1000 cells per well were seeded in 150 μL of complete growth media supplemented with 10% fetal bovine serum (FBS) and incubated at 37° C., in the presence of 5% CO2 in 96-well ultra-low attachment microplates (Corning) for 48 hours undisturbed to allow spheroids to form.
(§4) Following spheroid formation, cells were treated with compounds diluted in DMSO at 0.25% final DMSO concentration. Compounds were dosed in a 9-point concentration curve with three-fold dilution between concentrations. Cells were incubated in the presence of compound for 72 hours at 37° C., in the presence of 5% CO2.
(§5) Following this incubation period, the kit-provided CTG reagent was allowed to equilibrate for 30 minutes at room temperature, 150 μL of equilibrated CTG reagent was added to each well, and the plate was sealed before shaking at 250 rpm for 10 minutes at room temperature to lyse the cells, 150 μL of lysate per well was transferred to a 96-well plate and luminescence was read on a CLARIOstar plate reader.
(§6) Data was imported into the Prism software package (Graphpad) and EC50 values were calculated using the log (inhibitor) vs, response—variable slope (Four parameters) model.

H358 cells (KRAS G12C) = experiment: 3D Cell viability assay in H358 cells (Biological Example 6); assay type: cell-based; conditions: H358 (KRAS G12C) spheroids, 72 hours
Procedure: as §1, §2, §3, §4, §5, §6

[1] = target: T1, Avi-KRAS G12D (2-169) GTP/RAF1 RBD-3xFLAG (51-131) (Homo sapiens, UniProt P01116, G12D); experiment: Raf1-KRAS G12D-GTP disruption HTRF assay (Biological Example 3); assay type: binding; conditions: KRAS G12D, GTP-loaded
T1 construct: Avi-KRAS G12D (2-169)
T1 sequence (P01116 2-169 isoform P01116-2 G12D): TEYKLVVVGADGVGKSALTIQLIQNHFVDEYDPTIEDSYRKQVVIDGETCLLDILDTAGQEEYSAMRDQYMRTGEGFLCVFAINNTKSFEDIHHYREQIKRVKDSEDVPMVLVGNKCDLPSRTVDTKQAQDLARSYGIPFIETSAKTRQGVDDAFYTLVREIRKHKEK
Summary of the method: (§7)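 HTRF PPI read-out (ex 320 nm, em 615 nm) after 1 h RT incubation with shaking; data as % activity vs DMSO (100%), IC50 from curve fit. Complex 50 nM, RBD reagent 75 nM; compound 30-0.005 μM, 3-fold.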

[2] = target: T2, Avi-KRAS WT (2-169) GTP/RAF1 RBD-3xFLAG (51-131) (Homo sapiens, UniProt P01116); experiment: Raf1-KRAS WT-GTP disruption HTRF assay (Biological Example 3); assay type: binding; conditions: KRAS WT, GTP-loaded
T2 construct: Avi-KRAS WT (2-169)
T2 sequence (P01116 2-169 isoform P01116-2): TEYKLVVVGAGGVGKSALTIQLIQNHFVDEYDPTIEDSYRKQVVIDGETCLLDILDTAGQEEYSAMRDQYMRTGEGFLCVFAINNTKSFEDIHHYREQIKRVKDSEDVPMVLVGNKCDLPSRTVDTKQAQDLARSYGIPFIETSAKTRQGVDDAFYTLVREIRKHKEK
Summary of the method: as §7

[3] = system: MKN1 cells (KRAS amplification); experiment: 3D Cell viability assay in MKN1 cells (Biological Example 6); assay type: cell-based; conditions: MKN (MKN1, KRAS amplification) spheroids, 72 hours
Procedure: as §1, §2, §3, §4, §5, §6

SMILES: N#Cc1c(N)sc2c(F)ccc(-c3c(C(F)(F)F)cc4c(N5CCC[C@@H](O)C5)nc(OC[C@@]56CCCN5C[C@H](F)C6)nc4c3F)c12 [Compound 234]
- pIC50 (GP2d cells (KRAS G12D); GP2d, pERK HTRF): > 7.00
- pIC50 (SW1900 cells (KRAS G12D); Homo sapiens): ≥ 7.00
- pIC50 (H358 cells (KRAS G12C); Homo sapiens, NCI-H358): ≥ 7.00

SMILES: N#Cc1c(N)sc2c(F)ccc(-c3c(C(F)(F)F)cc4c(N5CC6CC5CO6)nc(OC[C@@]56CCCN5C[C@H](F)C6)nc4c3F)c12 (stereo partly shown) [Compound 147]
- pIC50 (GP2d cells (KRAS G12D); GP2d, pERK HTRF): > 7.00
- pIC50 (SW1900 cells (KRAS G12D); Homo sapiens): 6.00 to 7.00
- pIC50 (H358 cells (KRAS G12C); Homo sapiens, NCI-H358): ≥ 7.00

SMILES: N#Cc1c(N)sc2c(F)ccc(-c3c(C(F)(F)F)cc4c(N5CCOCC5)nc(OC[C@@]56CCCN5C[C@H](F)C6)nc4c3F)c12 (single isomer, unassigned) [Compound 198]
- pIC50 (GP2d cells (KRAS G12D); pERK HTRF): > 7.00
- pIC50 (GP2d cells (KRAS G12D); GP2d): > 7.00
- pIC50 [1]: 6.00 to 7.00
- pIC50 [2]: 6.00 to 7.00
- pIC50 (H358 cells (KRAS G12C); Homo sapiens, NCI-H358): ≥ 7.00
- pIC50 ([3]; Homo sapiens, MKN-1): ≥ 7.00

SMILES: N#Cc1cnn2c1CN(c1nc(OC[C@@]34CCCN3C[C@H](F)C4)nc3c(F)c(-c4ccc(F)c5sc(N)c(C#N)c45)c(C(F)(F)F)cc13)CC2 [Compound 392]
- pIC50 (GP2d cells (KRAS G12D); GP2d, pERK HTRF): > 7.00
- pIC50 (SW1900 cells (KRAS G12D); Homo sapiens): ≥ 7.00
- pIC50 (H358 cells (KRAS G12C); Homo sapiens, NCI-H358): ≥ 7.00
- pIC50 ([3]; Homo sapiens, MKN-1): ≥ 7.00

SMILES: CCN(c1nc(OCC23CCCN2CC(F)C3)nc2c(F)c(-c3ccc(F)c4sc(N)c(C#N)c34)c(C(F)(F)F)cc12)C1CC(C)N(C(=O)N2CC(F)C2)C1 (stereo not shown) [Compound 759]
- pIC50 (GP2d cells (KRAS G12D); pERK HTRF, class symbols): > 7.00
- pIC50 (SW1900 cells (KRAS G12D)): ≥ 7.00
- pIC50 (H358 cells (KRAS G12C)): ≥ 7.00
- pIC50 [3]: ≥ 7.00

SMILES: CN(c1nc(OC[C@@]23CCCN2C[C@H](F)C3)nc2c(F)c(-c3ccc(F)c4sc(N)c(C#N)c34)c(C(F)(F)F)cc12)[C@H]1C[C@@H](O)C1 [Compound 19, 2-amino-7-fluoro-4-((S)-8-fluoro-2-(((2R,7aS)-2-fluorotetrahydro-1H-pyrrolizin-7a(5H)-yl)methoxy)-4-(((1s,3R)-3-hydroxycyclobutyl)(methyl)amino)-6-(trifluoromethyl)quinazolin-7-yl)benzo[b]thiophene-3-carbonitrile]
- pIC50 (GP2d cells (KRAS G12D)): > 7.00
- pIC50 (GP2d cells (KRAS G12D); pERK HTRF): > 7.00
- pIC50 [1]: ≥ 7.00
- pIC50 [2]: ≥ 7.00
- pIC50 (H358 cells (KRAS G12C)): ≥ 7.00
- pIC50 [3]: ≥ 7.00

SMILES: CCC(=O)N1C[C@@H](N(CC)c2nc(OC[C@@]34CCCN3C[C@H](F)C4)nc3c(F)c(-c4ccc(F)c5sc(N)c(C#N)c45)c(C(F)(F)F)cc23)C[C@H]1C [Compound 442]
- pIC50 (GP2d cells (KRAS G12D); GP2d, pERK HTRF): > 7.00
- pIC50 (SW1900 cells (KRAS G12D); Homo sapiens): ≥ 7.00
- pIC50 (H358 cells (KRAS G12C); Homo sapiens, NCI-H358): ≥ 7.00
- pIC50 ([3]; Homo sapiens, MKN-1): ≥ 7.00

SMILES: CCN(c1nc(OC[C@@]23CCCN2C[C@H](F)C3)nc2c(F)c(-c3ccc(F)c4sc(N)c(C#N)c34)c(C(F)(F)F)cc12)[C@H]1C[C@H](C)N(C(C)=O)C1 [Compound 463]
- pIC50 (GP2d cells (KRAS G12D); GP2d, pERK HTRF): > 7.00
- pIC50 (SW1900 cells (KRAS G12D); Homo sapiens): ≥ 7.00
- pIC50 (H358 cells (KRAS G12C); Homo sapiens, NCI-H358): ≥ 7.00
- pIC50 ([3]; Homo sapiens, MKN-1): ≥ 7.00

SMILES: C[C@@H]1[C@H](N(C)c2nc(OC[C@@]34CCCN3C[C@H](F)C4)nc3c(F)c(-c4ccc(F)c5sc(N)c(C#N)c45)c(C(F)(F)F)cc23)CCN1C(=O)C1CC1 [Compound 258]
- pIC50 (GP2d cells (KRAS G12D); GP2d, pERK HTRF): > 7.00
- pIC50 (SW1900 cells (KRAS G12D); Homo sapiens): ≥ 7.00
- pIC50 (H358 cells (KRAS G12C); Homo sapiens, NCI-H358): ≥ 7.00

SMILES: CCN(c1nc(OC[C@@]23CCCN2C[C@H](F)C3)nc2c(F)c(-c3ccc(F)c4sc(N)c(C#N)c34)c(C(F)(F)F)cc12)[C@H]1CCN(C(=O)c2ncco2)C1 (atropisomer, axis not shown) [Compound 584]
- pIC50 (GP2d cells (KRAS G12D); GP2d, pERK HTRF, class symbols): > 7.00
- pIC50 (SW1900 cells (KRAS G12D); Homo sapiens): ≥ 7.00
- pIC50 (H358 cells (KRAS G12C); Homo sapiens, NCI-H358): ≥ 7.00
- pIC50 ([3]; Homo sapiens, MKN-1): ≥ 7.00

SMILES: C[C@@H]1[C@H](N(C)c2nc(OC[C@@]34CCCN3C[C@H](F)C4)nc3c(F)c(-c4ccc(F)c5sc(N)c(C#N)c45)c(C(F)(F)F)cc23)CC(=O)N1C [Compound 440]
- pIC50 (GP2d cells (KRAS G12D); GP2d, pERK HTRF): > 7.00
- pIC50 (SW1900 cells (KRAS G12D); Homo sapiens): ≥ 7.00
- pIC50 (H358 cells (KRAS G12C); Homo sapiens, NCI-H358): 6.00 to 7.00
- pIC50 ([3]; Homo sapiens, MKN-1): ≥ 7.00

SMILES: CN(Cc1cccnc1N)c1nc(OC[C@@]23CCCN2C[C@H](F)C3)nc2c(F)c(-c3ccc(F)c4sc(N)c(C#N)c34)c(C(F)(F)F)cc12 [Compound 390]
- pIC50 (GP2d cells (KRAS G12D); GP2d, pERK HTRF): > 7.00
- pIC50 (SW1900 cells (KRAS G12D); Homo sapiens): ≥ 7.00
- pIC50 (H358 cells (KRAS G12C); Homo sapiens, NCI-H358): ≥ 7.00
- pIC50 ([3]; Homo sapiens, MKN-1): ≥ 7.00
